{
  "source": "ChEMBL document CHEMBL1157276",
  "about": "“Halogenated monoterpenes from plocamium costatum and their biological activity1” (1999)",
  "assay_type_in_all_cases": "functional",
  "key": {"Amphibalanus amphitrite [1]": {"test_system": "Amphibalanus amphitrite", "assay": "Antifouling activity against cypris larvae at 0.1 ug/cm'2"}, "Amphibalanus amphitrite [2]": {"test_system": "Amphibalanus amphitrite", "assay": "Antifouling activity against cypris larvae at 1 ug/cm'2"}, "Amphibalanus amphitrite [3]": {"test_system": "Amphibalanus amphitrite", "assay": "Antifouling activity against cypris larvae at 10 ug/cm'2"}, "Amphibalanus amphitrite [4]": {"test_system": "Amphibalanus amphitrite", "assay": "Antifouling activity against cypris larvae at 0.01 ug/cm'2"}},
  "data": [
    {"smiles": "C[C@](Cl)(/C=C/[C@H](Cl)[C@](C)(Cl)/C=C/Br)C(Br)Br", "values": [
      {"measurement": "Activity", "setting": "Amphibalanus amphitrite [1]", "result": 54, "unit": "%"},
      {"measurement": "Activity", "setting": "Amphibalanus amphitrite [2]", "result": 37, "unit": "%"},
      {"measurement": "Activity", "setting": "Amphibalanus amphitrite [3]", "result": 2.2, "unit": "%"},
      {"measurement": "Activity", "setting": "Amphibalanus amphitrite [4]", "result": 42, "unit": "%"}
    ]},
    {"smiles": "C=CC(C)(O)CCCC(C)CCCC(C)CCCC(C)C", "note": "(configuration not stated)", "values": [
      {"measurement": "Activity", "setting": "Amphibalanus amphitrite [1]", "result": 54, "unit": "%"},
      {"measurement": "Activity", "setting": "Amphibalanus amphitrite [2]", "result": 23, "unit": "%"},
      {"measurement": "Activity", "setting": "Amphibalanus amphitrite [3]", "result": 13, "unit": "%"},
      {"measurement": "Activity", "setting": "Amphibalanus amphitrite [4]", "result": 43, "unit": "%"}
    ]},
    {"smiles": "C=C(C)C(Cl)C/C=C(\\C)C(Cl)CBr", "note": "(configuration not stated)", "values": [
      {"measurement": "Activity", "setting": "Amphibalanus amphitrite [1]", "result": 52, "unit": "%"},
      {"measurement": "Activity", "setting": "Amphibalanus amphitrite [2]", "result": 53, "unit": "%"},
      {"measurement": "Activity", "setting": "Amphibalanus amphitrite [3]", "result": 58, "unit": "%"},
      {"measurement": "Activity", "setting": "Amphibalanus amphitrite [4]", "result": 57, "unit": "%"}
    ]}
  ]
}
